Experimental findings from patent publication US20230096766A1, “AMINO ACID HAVING FUNCTIONAL GROUP CAPABLE OF INTERMOLECULAR HYDROGEN BONDING, PEPTIDE COMPOUND CONTAINING SAME AND METHOD FOR PRODUCTION THEREOF” (Chugai Seiyaku Kabushiki Kaisha, priority 2018, published 2023) are described below.

SMILES strings stand for the structures. *1 amine or outer side, *2 acyl side, *3 side chain or, on linkers, in order; H or OH if unused. Where a SMILES comes first, the peptide text is derived from it. Bridges are numbered along the chain shown (N, C = ends). [ ]: non-standard residue; d: D form. The star is where a group is joined. ξ: configuration not given here. X5 = O=C([C@H](CCC[C@@H]1CC(F)(F)CN1)N[*:1])[*:2]; Pro(4,4-F2)ψ(CH2) = FC1(F)CN[C@H](C*)C1; NMeF = CN[C@@H](Cc1ccccc1)C(=O)O; NMeGABA = CN(CCCC(=O)[*:2])[*:1]; NMeL = CN[C@@H](CC(C)C)C(=O)O; ξIle = CC[C@H](C)C(N)C(=O)O; NMeAbu = CC[C@H](NC)C(=O)O; NMeA = CN[C@@H](C)C(=O)O; Piperidide = C1CCN(*)CC1; dAbu = CC[C@@H](N)C(=O)O; NBuGly = CCCCNCC(=O)O; ξNMeA = CNC(C)C(=O)O; Sar = CNCC(=O)O; tBu = CC(C)(C)*

This series is described as follows: Membrane permeability test of cyclic peptides (Caco-2, modified/improved method of WO 2018/124162). The note with it: human, Caco-2, Caco-2 (membrane permeability), Table 10, cyclic peptides containing Ser(S-4-F2-Pyrro-Me) (G) or Nva(2-R-4-F2-Pyrro) (H).
As for `CCCCN1CC(=O)N(C)[C@@H](CC(C)C)C(=O)N[C@H](C(=O)N2CCCCC2)CC(=O)N(C)[C@@H](CC)C(=O)N[C@@H](CC(C)C)C(=O)N(C)[C@@H](CC(C)C)C(=O)N(C)[C@@H](Cc2ccccc2)C(=O)N[C@@H](COC[C@@H]2CC(F)(F)CN2)C(=O)N(C)[C@@H](CC)C(=O)N(C)[C@@H](CC(C)C)C(=O)N[C@@H]([C@@H](C)O)C1=O` [Compound G04] ([NMeAbu]L[NMeL][NMeF]S(Pro(4,4-F2)ψ(CH2))[NMeAbu][NMeL]T[NBuGly][NMeL]D-Piperidide; lactam N-11), the Papp came out at 1.8 ×10⁻⁶ cm/s.

`CCCCN1CC(=O)N(C)[C@@H](CC(C)C)C(=O)N[C@H](C(=O)N2CCCCC2)CC(=O)N(C)C(C)C(=O)N[C@@H](COC[C@@H]2CC(F)(F)CN2)C(=O)N(C)[C@@H](CC(C)C)C(=O)N(C)[C@@H](CC)C(=O)N[C@@H](C(C)C)C(=O)N(C)[C@@H](Cc2ccccc2)C(=O)N(C)[C@@H](CC(C)C)C(=O)N[C@@H]([C@@H](C)O)C1=O` (stereo partly drawn) [Compound G05] ([ξNMeA]S(Pro(4,4-F2)ψ(CH2))[NMeL][NMeAbu]V[NMeF][NMeL]T[NBuGly][NMeL]D-Piperidide; lactam N-11): the Papp came out at 3.2 ×10⁻⁶ cm/s. Compared with the last compound, the Papp is about 1.8-fold higher.

`CCCCN1CC(=O)N(C)[C@@H](Cc2ccccc2)C(=O)N(C)[C@@H](CC(C)C)C(=O)N[C@@H](C(C)C)C(=O)N(C)[C@@H](CC(C)C)C(=O)N[C@H](C(=O)N2CCCCC2)CC(=O)N(C)CC(=O)N(C)[C@@H](CC(C)C)C(=O)N[C@@H](COC[C@@H]2CC(F)(F)CN2)C(=O)N(C)[C@@H](CC(C)C)C(=O)N[C@@H]([C@@H](C)O)C1=O` [Compound G06] ([Sar][NMeL]S(Pro(4,4-F2)ψ(CH2))[NMeL]T[NBuGly][NMeF][NMeL]V[NMeL]D-Piperidide; lactam N-11) had an apparent permeability (Papp) of 1.8 ×10⁻⁶ cm/s.

Consider `CCCCN1CC(=O)N(C)[C@@H](Cc2ccccc2)C(=O)N(C)[C@@H](CC(C)C)C(=O)N[C@@H](COC[C@@H]2CC(F)(F)CN2)C(=O)N(C)[C@@H](CC(C)C)C(=O)N[C@H](C(=O)N2CCCCC2)CC(=O)N(C)CC(=O)N(C)[C@@H](CC(C)C)C(=O)NC([C@@H](C)CC)C(=O)N(C)[C@@H](CC(C)C)C(=O)N[C@@H]([C@@H](C)O)C1=O` (stereo partly drawn) [Compound G07] ([Sar][NMeL][ξIle][NMeL]T[NBuGly][NMeF][NMeL]S(Pro(4,4-F2)ψ(CH2))[NMeL]D-Piperidide; lactam N-11), for which the Papp worked out at 0.57 ×10⁻⁶ cm/s.

In turn, `CCCCN1CC(=O)N(C)[C@@H](CC(C)C)C(=O)N[C@@H](COC(C)(C)C)C(=O)N(C)[C@@H](Cc2ccccc2)C(=O)N(C)[C@@H](CC)C(=O)N[C@H](C(=O)N2CCCCC2)CC(=O)N[C@H](C)C(=O)N(C)[C@@H](CC)C(=O)N[C@@H](C(C)C)C(=O)N(C)[C@@H](CC(C)C)C(=O)N[C@@H](COC[C@@H]2CC(F)(F)CN2)C1=O` [Compound G08] ([dA][NMeAbu]V[NMeL]S(Pro(4,4-F2)ψ(CH2))[NBuGly][NMeL]S(tBu)[NMeF][NMeAbu]D-Piperidide; lactam N-11) yielded an apparent permeability (Papp) of 1.3 ×10⁻⁶ cm/s. Compared with the last compound, the Papp is about 2.3-fold higher.

As to `CC[C@H]1C(=O)N[C@@H](COC(C)(C)C)C(=O)N(C)[C@@H](CC(C)C)C(=O)N[C@@H](COC[C@@H]2CC(F)(F)CN2)C(=O)N(C)[C@@H](CC(C)C)C(=O)N(C)[C@@H](CC(C)C)C(=O)N[C@H](C(=O)N2CCCCC2)CC(=O)N(C)CCCC(=O)N(C)[C@@H](CC(C)C)C(=O)N[C@@H](C(C)C)C(=O)N(C)[C@@H](Cc2ccccc2)C(=O)N1C` [Compound G09] ([NMeGABA][NMeL]V[NMeF][NMeAbu]S(tBu)[NMeL]S(Pro(4,4-F2)ψ(CH2))[NMeL][NMeL]D-Piperidide; lactam N-11), the Papp turned out to be 1.2 ×10⁻⁶ cm/s.

`CC[C@H]1C(=O)N(C)[C@@H](Cc2ccccc2)C(=O)N[C@@H](CC(C)C)C(=O)N(C)[C@@H](CC(C)C)C(=O)N(C)[C@@H](CC(C)C)C(=O)N[C@@H](COC[C@@H]2CC(F)(F)CN2)C(=O)N(C)CC(=O)N(C)[C@@H](CC(C)C)C(=O)N[C@H](C(=O)N2CCCCC2)CC(=O)N(C)[C@@H](C)C(=O)N[C@@H](CC(C)C)C(=O)N1C` [Compound G10] ([NMeA]L[NMeAbu][NMeF]L[NMeL][NMeL]S(Pro(4,4-F2)ψ(CH2))[Sar][NMeL]D-Piperidide; lactam N-11) displayed a Papp of 1.1 ×10⁻⁶ cm/s.

`CCCCN1CC(=O)N(C)[C@@H](Cc2ccccc2)C(=O)N(C)[C@@H](CC(C)C)C(=O)N[C@@H](CC(C)C)C(=O)N(C)[C@@H](CC(C)C)C(=O)N[C@H](C(=O)N2CCCCC2)CC(=O)N(C)CC(=O)N(C)[C@@H](CC)C(=O)N[C@@H](C(C)C)C(=O)N(C)[C@@H](CC)C(=O)N[C@@H](COC[C@@H]2CC(F)(F)CN2)C1=O` [Compound G11] ([Sar][NMeAbu]V[NMeAbu]S(Pro(4,4-F2)ψ(CH2))[NBuGly][NMeF][NMeL]L[NMeL]D-Piperidide; lactam N-11) gave an apparent permeability (Papp) of 1.5 ×10⁻⁶ cm/s.

`CCCCN1CC(=O)N(C)[C@@H](CC(C)C)C(=O)N[C@@H](CCC[C@@H]2CC(F)(F)CN2)C(=O)N(C)[C@@H](CC(C)C)C(=O)N(C)[C@@H](CC(C)C)C(=O)N[C@H](C(=O)N2CCCCC2)CC(=O)N[C@H](CC)C(=O)N(C)[C@@H](Cc2ccccc2)C(=O)N[C@@H](CC(C)C)C(=O)N(C)[C@@H](CC)C(=O)N[C@@H]([C@@H](C)O)C1=O` [Compound H01] ([dAbu][NMeF]L[NMeAbu]T[NBuGly][NMeL][X5][NMeL][NMeL]D-Piperidide; lactam N-11) gave a Papp of 0.25 ×10⁻⁶ cm/s.

In turn, `CCCCN1CC(=O)N(C)[C@@H](C)C(=O)N[C@@H](CCC[C@@H]2CC(F)(F)CN2)C(=O)N(C)[C@@H](Cc2ccccc2)C(=O)N(C)[C@@H](CC)C(=O)N[C@H](C(=O)N2CCCCC2)CC(=O)N[C@H](CC(C)C)C(=O)N(C)[C@@H](CC(C)C)C(=O)N[C@@H](C(C)C)C(=O)N(C)[C@@H](CC(C)C)C(=O)N[C@@H]([C@@H](C)O)C1=O` [Compound H02] ([dL][NMeL]V[NMeL]T[NBuGly][NMeA][X5][NMeF][NMeAbu]D-Piperidide; lactam N-11) gave an apparent permeability (Papp) of 0.14 ×10⁻⁶ cm/s. This Papp is about 1.8-fold lower than that of the compound before.

As for `CC(C)C[C@H]1C(=O)N[C@@H](C(C)C)C(=O)N(C)[C@@H](Cc2ccccc2)C(=O)N(C)[C@@H](CC(C)C)C(=O)N[C@@H](CCC[C@@H]2CC(F)(F)CN2)C(=O)N(C)[C@@H](CC(C)C)C(=O)N[C@@H]([C@@H](C)O)C(=O)N(C)[C@@H](CC(C)C)C(=O)N(C)[C@@H](CC(C)C)C(=O)N[C@H](C(=O)N2CCCCC2)CC(=O)N(C)CCCC(=O)N1C` [Compound H03] ([NMeGABA][NMeL]V[NMeF][NMeL][X5][NMeL]T[NMeL][NMeL]D-Piperidide; lactam N-11), the Papp is less than 0.18 ×10⁻⁶ cm/s.

Take `CCCCN1CC(=O)N(C)[C@@H](CC(C)C)C(=O)N[C@H](C(=O)N2CCCCC2)CC(=O)N(C)[C@@H](CC)C(=O)N[C@@H](CC(C)C)C(=O)N(C)[C@@H](CC(C)C)C(=O)N(C)[C@@H](Cc2ccccc2)C(=O)N[C@@H](CCC[C@@H]2CC(F)(F)CN2)C(=O)N(C)[C@@H](C)C(=O)N(C)[C@@H](CC(C)C)C(=O)N[C@@H]([C@@H](C)O)C1=O` [Compound H04] ([NMeAbu]L[NMeL][NMeF][X5][NMeA][NMeL]T[NBuGly][NMeL]D-Piperidide; lactam N-11): the apparent permeability (Papp) was determined as 0.93 ×10⁻⁶ cm/s.

For `CCCCN1CC(=O)N(C)[C@@H](CC(C)C)C(=O)N[C@H](C(=O)N2CCCCC2)CC(=O)N(C)[C@@H](C)C(=O)N[C@@H](CCC[C@@H]2CC(F)(F)CN2)C(=O)N(C)[C@@H](CC(C)C)C(=O)N(C)[C@@H](C)C(=O)N[C@@H](C(C)C)C(=O)N(C)[C@@H](Cc2ccccc2)C(=O)N(C)[C@@H](CC(C)C)C(=O)N[C@@H]([C@@H](C)O)C1=O` [Compound H05] ([NMeA][X5][NMeL][NMeA]V[NMeF][NMeL]T[NBuGly][NMeL]D-Piperidide; lactam N-11), the apparent permeability (Papp) came out at 1.2 ×10⁻⁶ cm/s.

As a reminder, the Papp is the rate of passage across a membrane or cell layer, normalised by area and donor concentration.
